Patent publication US11066372B2, “Deuterated benzimidazole compound and medical use thereof” (Sumitomo Dainippon Pharma Co., Ltd., priority 2017, dated 2021)

Key:
human SCN9A (Nav 1.7) = human SCN9A (Nav 1.7) (Homo sapiens, UniProt Q15858); test: Measurement of Na ion current (Nav 1.7) by automated patch clamp assay in cells stably-expressing human SCN9A; type: cell-based; details: compound concentration 10 μmol/L, holding potential inactivating 50% Nav 1.7 channel (around −60 mV); for inhibition at 10 µM: read-out: Inhibitory rate (%) of Na ion current
human SCN9A (Nav 1.7), sequence (Q15858 whole entry): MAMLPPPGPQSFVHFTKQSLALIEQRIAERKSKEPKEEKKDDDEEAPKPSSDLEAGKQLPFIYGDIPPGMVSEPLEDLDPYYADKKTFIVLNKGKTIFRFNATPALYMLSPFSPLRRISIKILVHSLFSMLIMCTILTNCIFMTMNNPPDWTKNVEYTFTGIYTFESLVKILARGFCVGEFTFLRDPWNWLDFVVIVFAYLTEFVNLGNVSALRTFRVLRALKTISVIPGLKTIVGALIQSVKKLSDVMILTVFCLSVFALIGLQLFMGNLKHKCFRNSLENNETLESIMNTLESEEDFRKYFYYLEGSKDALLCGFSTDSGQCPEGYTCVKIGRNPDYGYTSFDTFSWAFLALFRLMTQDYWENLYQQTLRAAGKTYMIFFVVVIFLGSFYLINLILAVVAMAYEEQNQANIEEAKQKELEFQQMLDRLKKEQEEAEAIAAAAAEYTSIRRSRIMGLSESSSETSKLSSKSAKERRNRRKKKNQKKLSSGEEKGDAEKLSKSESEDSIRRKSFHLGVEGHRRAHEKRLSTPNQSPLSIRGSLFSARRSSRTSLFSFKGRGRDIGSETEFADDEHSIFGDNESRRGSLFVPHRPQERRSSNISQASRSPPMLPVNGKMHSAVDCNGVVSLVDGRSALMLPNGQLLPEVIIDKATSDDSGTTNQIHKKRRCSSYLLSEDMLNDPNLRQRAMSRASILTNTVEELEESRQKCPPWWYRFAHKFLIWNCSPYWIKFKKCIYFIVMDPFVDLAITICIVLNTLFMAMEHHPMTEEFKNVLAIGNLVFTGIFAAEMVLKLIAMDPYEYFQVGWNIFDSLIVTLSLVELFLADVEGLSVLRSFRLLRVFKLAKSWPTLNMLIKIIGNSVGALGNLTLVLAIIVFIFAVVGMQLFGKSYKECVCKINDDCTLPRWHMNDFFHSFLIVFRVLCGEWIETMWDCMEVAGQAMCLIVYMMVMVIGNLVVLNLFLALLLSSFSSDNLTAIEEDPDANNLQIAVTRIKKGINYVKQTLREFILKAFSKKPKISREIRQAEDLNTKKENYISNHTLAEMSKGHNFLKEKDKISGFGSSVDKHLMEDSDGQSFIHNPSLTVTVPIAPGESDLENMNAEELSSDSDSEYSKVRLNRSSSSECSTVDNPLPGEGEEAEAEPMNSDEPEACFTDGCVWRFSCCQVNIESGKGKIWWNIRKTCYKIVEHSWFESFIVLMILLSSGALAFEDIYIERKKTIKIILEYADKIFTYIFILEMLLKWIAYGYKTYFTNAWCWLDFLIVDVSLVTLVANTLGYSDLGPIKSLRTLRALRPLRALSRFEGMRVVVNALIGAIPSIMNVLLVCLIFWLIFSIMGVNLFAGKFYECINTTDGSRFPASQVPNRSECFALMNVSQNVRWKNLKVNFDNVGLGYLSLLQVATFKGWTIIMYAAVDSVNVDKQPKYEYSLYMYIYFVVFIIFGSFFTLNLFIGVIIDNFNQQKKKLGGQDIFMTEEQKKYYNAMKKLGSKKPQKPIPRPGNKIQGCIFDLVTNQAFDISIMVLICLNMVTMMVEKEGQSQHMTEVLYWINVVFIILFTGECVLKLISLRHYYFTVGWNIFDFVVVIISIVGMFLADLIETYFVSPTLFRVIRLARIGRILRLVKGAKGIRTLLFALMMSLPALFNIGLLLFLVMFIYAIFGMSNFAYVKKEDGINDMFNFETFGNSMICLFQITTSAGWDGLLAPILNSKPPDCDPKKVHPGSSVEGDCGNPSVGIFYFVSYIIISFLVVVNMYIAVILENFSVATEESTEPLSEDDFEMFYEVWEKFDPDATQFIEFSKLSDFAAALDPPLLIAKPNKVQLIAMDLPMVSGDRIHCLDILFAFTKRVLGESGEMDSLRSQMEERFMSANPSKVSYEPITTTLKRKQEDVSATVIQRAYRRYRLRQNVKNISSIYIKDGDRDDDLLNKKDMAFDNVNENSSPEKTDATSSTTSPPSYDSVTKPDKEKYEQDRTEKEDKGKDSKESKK
Method: Test 1: Measurement of Na Ion Current in Voltage-Dependent Na Channel Gene Expressed Cell
Nav 1.7 current was measured by automated patch clamp assay using cells stably-expressing human SCN9A.
Cells Stably-Expressing Human SCN9A
Tetracycline-induced cells stably-expressing SCN9A were obtained from ChanTest Corporation. The cells were passaged in Ham's F-12 medium containing 10% fetal bovine serum, 100 units/mL Penicillin-Streptomycin, 0.01 mg/mL Blasticidin, and 0.4 mg/mL Zeocin. The day before the measurement, the medium was replaced with Ham's F-12 medium containing 1 μg/mL tetracycline, 100 μmol/L sodium butyrate, 10% fetal bovine serum, and 100 units/mL Penicillin-Streptomycin. Next day, the Na ion current was measured by automated patch clamp assay.
Electrophysiologic Measurement of Na Ion Current
The Na ion current was measured by automated patch clamp assay using the following extracellular solution and intracellular solution.
Extracellular solution (mmol/L): NaCl 130, MgCl2 2, CaCl2 2, CdCl2 0.1, NiCl2 0.1, Tetraethylammonium-Cl 18, 4-aminopyridine 1, HEPES 10, (adjusting pH 7.4 with NaOH)
Intracellular solution (mmol/L): CsF 120, EGTA 10, NaCl 15, HEPES 10, (adjusting pH 7.2 with CsOH)
The control of the stimulating pulse and the data acquisition were carried out using EPC10 amplifier and Patch Master Software (HEKA). Data were sampled at 10 kHz, and low-pass filtered at 3 kHz. All the measurements were carried out at room temperature. The holding potential was set at a potential inactivating 50% Nav 1.7 channel (around −60 mV), and depolarizing pulse of 20 milliseconds (+10 mV) was given once. […] The inhibitory rate of the Na ion current by the test compounds was calculated according to the following calculating formula with the peak current value generated by the depolarizing pulse. Inhibitory rate of Na ion current (%)=100×[(Peak current value in the absence of Test Compound)−(Peak current value in the presence of Test Compound)]/(Peak current value in the absence of Test Compound) Result: […]

[1] = system: rats streptozotocin (STZ)-induced diabetic peripheral neuropathy model; test: Analgesic effect (von Frey test) in streptozotocin-induced diabetic peripheral neuropathic pain model; type: in vivo, rat; details: orally administered 3 mg/kg, one hour before measuring, male Wistar rats
Method: Test 2: Evaluation of Analgesic Effect in Streptozotocin-Induced Diabetic Peripheral Neuropathic Pain Models
Using some typical compounds among the compounds of the present invention, the inhibitory effect for neuropathic pain was determined through the evaluation of analgesic effect in rats streptozotocin (STZ)-induced diabetic peripheral neuropathy model.
The disease animal model was prepared by means of a partially-modified method of Fox et al. (Pain 81, 307-316, 1999). STZ was intraperitoneally administered to 9-week old male Wistar rats in 45 mg/kg of body weight to prepare animal model suffering from diabetic peripheral neuropathy.
The analgesic effect was evaluated by von Frey test. Specifically, mechanical sensitivity was measured by applying hairs (von Frey hair) to the plantar surface of the animal's hind paw, and then the reaction thresholds (50% paw withdrawal thresholds) for the mechanical stimulation was determined by using a formula based on Chaplan et al. (Journal of Neuroscience Methods 53, 55-63, 1994).
One and two days before evaluating the test compounds, the reaction thresholds were measured to obtain an average thereof, and the average value was used as a reference value obtained before the test compounds would be administered. […]
In the evaluation test of the test compounds, the reaction thresholds were measured after administering each test compound. […]

[2] = Metabolic stability test in liver microsome (human); type: in vitro ADME; details: NADPH, 37° C., 30 minutes, dealkyl metabolite product (Reference example 5-7) assayed
Method: (§1) Test 3: Metabolic Stability Test in Liver Microsome
(§2) To a solution obtained by mixing 4 μL of human or rat liver microsome (produced by Xenotech, 20 mg/mL), 100 μL of 100 mM phosphate buffer solution (pH 7.4), and 74 μL of ultrapure water were added 2 μL of 1 μM DMSO solution of the test compound and further 40 μL of 10 mM aqueous NADPH (produced by Oriental Yeast Co., ltd.), and then the mixture was incubated at 37° C. for 30 minutes. After the incubation, 50 μL of the reaction solution was added to methanol to cease the metabolic reaction. The quenched solution was centrifuged at 4° C. at 4500 rpm for 5 minutes, and the supernatant was filtrated. 100 μL of the supernatant was mixed with 100 μL of 10 mM aqueous ammonium acetate, and the mixture was analyzed with LC (Shimadzu, NexeraX2)-MS (AB Sciex, TripleTOF5600) to determine the amount of the corresponding metabolite product in the mixture.

[3] = Metabolic stability test in liver microsome (rat); type: in vitro ADME; details: NADPH, 37° C., 30 minutes, dealkyl metabolite product (Reference example 5-7) assayed
Method: as §1, §2

| Inhibitory rate (%) of Na ion current (human SCN9A (Nav 1.7)) [%] | Rate of generating the metabolite product, human [2] [pmol/min/mg protein] | Rate of generating the metabolite product, rat [3] [pmol/min/mg protein] | inhibition at 10 µM (human SCN9A (Nav 1.7)) [%] | Compound | extension width of reaction thresholds (50% paw withdrawal threshold, after minus before administration) [1] [g] |
| --- | --- | --- | --- | --- | --- |
| 36 | 0.026 | 0.260 |  | 2-methyl-1-(6-{[5-(trifluoromethyl)pyridin-2-yl]oxy}-1H-benzimidazol-1-yl) (1,1-^2H2)propan-2-ol [Example 2] | 5.0 |
|  |  |  | 55 | [2H]C([2H])(n1cnc2ccc(-c3ccc(C(F)(F)F)cc3OC)cc21)C1(O)COC1 [Example 5, 3-[{6-[2-methoxy-4-(trifluoromethyl)phenyl]-1H-benzimidazol-1-yl}(^2H2)methyl]oxetan-3-ol] |  |
| 40 | 0.069 | 0.40 |  | 4-[6-(4-chlorophenoxy)-1H-benzimidazol-1-yl]-2-methyl(4,4-^2H2)butan-2-ol [Example 3] |  |

More lines, now with the values behind:

| Compound | Inhibitory rate (%) of Na ion current (human SCN9A (Nav 1.7)) [%] | Rate of generating the metabolite product, human [2] [pmol/min/mg protein] | Rate of generating the metabolite product, rat [3] [pmol/min/mg protein] | inhibition at 10 µM (human SCN9A (Nav 1.7)) [%] | extension width of reaction thresholds (50% paw withdrawal threshold, after minus before administration) [1] [g] |
| --- | --- | --- | --- | --- | --- |
| 1-[6-(4-fluorophenoxy)-1H-benzimidazol-1-yl]-2-methyl (1,1-^2H2) propan-2-ol [Example 1] | 36 |  |  |  |  |
| [2H]C([2H])(n1cnc2ccc(Oc3ccc(OC(F)(F)F)cc3)cc21)C1(O)COC1 [Example 4, 3-[{6-[4-(trifluoromethoxy)phenoxy]-1H-benzimidazol-1-yl}(^2H2)methyl]oxetan-3-ol] |  |  |  | 68 |  |
